Experimental data: patent US20240083890A1, “MACROCYCLIC BRANCHED 3-FLUORO-BUT-3-ENAMIDES AS INHIBITORS OF MCL-1” (JANSSEN PHARMACEUTICA NV, priority 2020, published 2024)
Read-outs that look alike come from different tables or passages of the source.

Columns and labels:
[1] = tested on: MOLP-8 human multiple myeloma cell line; experiment: Caspase-Glo 3/7 apoptosis induction assay in MOLP-8 cells; assay type: cell-based; details: caspase-3/7 activation, 2 hours incubation at 37° C., averaged over all runs on all batches, read-out: MOLP8 AC50
From the text: MCL-1 is a regulator of apoptosis and is highly over-expressed in tumor cells that escape cell death. The assay evaluates the cellular potency of small-molecule compounds targeting regulators of the apoptosis pathway, primarily MCL-1, Bfl-1, Bcl-2, and other proteins of the Bcl-2 family. Protein-protein inhibitors disrupting the interaction of anti-apoptotic regulators with BH3-domain proteins initiate apoptosis.
The Caspase-Glo® 3/7 Assay is a luminescent assay that measures caspase-3 and -7 activities in purified enzyme preparations or cultures of adherent or suspension cells. The assay provides a proluminescent caspase-3/7 substrate, which contains the tetrapeptide sequence DEVD. This substrate is cleaved to release aminoluciferin, a substrate of luciferase used in the production of light. Addition of the single Caspase-Glo® 3/7 Reagent in an “add-mix-measure” format results in cell lysis, followed by caspase cleavage of the substrate and generation of a “glow-type” luminescent signal.
This assay uses the MOLP-8 human multiple myeloma cell line, which is sensitive to MCL-1 inhibition.
Cell cultures were maintained between 0.2 and 2.0×10^6 cells/mL. The cells were harvested by collection in 50 mL conical tubes. The cells were then pelleted at 500 g for 5 mins before removing supernatant and resuspension in fresh pre-warmed culture medium. The cells were counted and diluted as needed.
The assay reagent was prepared by transferring the buffer solution to the substrate vial and mixing. The solution may be stored for up to 1 week at 4° C. with negligible loss of signal.
Compounds were delivered in assay-ready plates (Proxiplate) and stored at −20° C.
Assays always include 1 reference compound plate containing reference compounds. The plates were spotted with 40 nL of compounds (0.5% DMSO final in cells; serial dilution; 30 μM highest conc. 1/3 dilution, 10 doses, duplicates). The compounds were used at room temperature and 4 μL of pre-warmed media was added to all wells except column 2 and 23. The negative control was prepared by adding 1% DMSO in media. The positive control was prepared by adding the appropriate positive control compound in final concentration of 60 μM in media. The plate was prepared by adding 4 μL negative control to column 23, 4 μL positive control to column 2, and 4 μL cell suspension to all wells in the plate. The plate with cells was then incubated at 37° C. for 2 hours. The assay signal reagent is the Caspase-Glo solution described above, and 8 μL was added to all wells. The plates were then sealed and measured after 30 minutes.
The activity of a test compound was calculated as percent change in apoptosis induction as follows: • LC=median of the Low Control values • =Central Reference in Screener • =DMSO • =0% • HC=Median of the High Control values • =Scale Reference in Screener • =30 μM of positive control • =100% apoptosis induction
% Effect (AC50)=100−((sample-LC)/(HC-LC))*100
% Control=(sample/HC)*100
% Control min=((sample-LC)/(HC-LC))*100
Table: Measured AC50 for Representative Compounds of Formula (I). Averaged values are reported over all runs on all batches of a particular compound.

Mcl-1 = Mcl-1 (Homo sapiens (Human), UniProt Q07820); experiment: Terbium labeled Mcl-1 HTRF binding assay, displacement of Cy5-labeled BIM BH3 peptide; details: Ki=IC50/(1+[L]/Kd), [L]=8 nM, Kd=10 nM; 25 pM Tb-Mcl-1, 8 nM Cy5 Bim peptide, 60 min; read-out: Tb-MCL1 Ki
Sequence of Mcl-1 (Q07820 whole entry): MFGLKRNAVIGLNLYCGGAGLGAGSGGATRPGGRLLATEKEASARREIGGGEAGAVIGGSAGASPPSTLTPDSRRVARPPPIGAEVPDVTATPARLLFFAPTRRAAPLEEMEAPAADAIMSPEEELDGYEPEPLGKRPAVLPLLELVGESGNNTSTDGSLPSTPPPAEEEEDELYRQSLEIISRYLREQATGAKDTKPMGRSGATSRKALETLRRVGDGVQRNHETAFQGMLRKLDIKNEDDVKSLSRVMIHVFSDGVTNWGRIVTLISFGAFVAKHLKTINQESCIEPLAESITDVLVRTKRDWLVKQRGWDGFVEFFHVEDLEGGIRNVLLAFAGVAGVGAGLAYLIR
Protocol: Terbium labeled Myeloid Cell Leukemia 1(Mcl-1) homogeneous time-resolved fluorescence (HTRF) binding assay utilizing the BIM BH3 peptide (H2N—(C/Cy5Mal) WIAQELRRIGDEFN-OH) as the binding partner for Mcl-1.
This assay evaluated inhibition of the BH3 domain: Mcl-1 interaction by measuring the displacement of Cy5-labeled BIM BH3 peptide (H2N—(C/Cy5Mal) WIAQELRRIGDEFN-OH) in the HTRF assay format.
The following assay and stock buffers were prepared for use in the assay: (a) Stock buffer: 10 mM Tris-HCl, pH=7.5+150 mM NaCl, filtered, sterilized, and stored at 4° C.; and (b) 1× assay buffer, where the following ingredients were added fresh to stock buffer: 2 mM dithiothreitol (DTT), 0.0025% Tween-20, 0.1 mg/mL bovine serum albumin (BSA). The 1× Tb-Mcl-1+Cy5 Bim peptide solution was prepared by diluting the protein stock solution using the 1× assay buffer (b) to 25 pM Tb-Mcl-1 and 8 nM Cy5 Bim peptide.
Using the Acoustic ECHO, 100 nL of 100× test compound(s) were dispensed into individual wells of a white 384-well Perkin Elmer Proxiplate, for a final compound concentration of 1× and final DMSO concentration of 1%. Inhibitor control and neutral control (NC, 100 nL of 100% DMSO) were stamped into columns 23 and 24 of assay plate. Into each well of the plate was then dispensed 10 μL of the 1× Tb-Mcl-1+Cy5 Bim peptide solution. The plate was centrifuged with a cover plate at 1000 rpm for 1 minute, then incubated for 60 minutes at room temperature with plates covered.
The TR-FRET signal was read on an BMG PHERAStar FSX MicroPlate Reader at room temperature using the HTRF optic module (HTRF: excitation: 337 nm, light source: laser, emission A: 665 nm, emission B: 620 nm, integration start: 60 μs, integration time: […]).
The BMG PHERAStar FSX MicroPlate Reader was used to measure fluorescence intensity at two emission wavelengths—665 nm and 620 nm—and report relative fluorescence units (RFU) for both emissions, as well as a ratio of the emissions (665 nm/620 nm)*10,000. The RFU values were normalized to percent inhibition as follows:
% inhibition (((NC−IC)−(compound-IC))/(NC−IC))*100
where IC (inhibitor control, low signal)=mean signal of 1× Tb-MCl-1+Cy5 Bim peptide+inhibitor control or 100% inhibition of Mel-1; NC (neutral control, high signal)=mean signal 1× Tb-MCI-1+Cy5 Bim peptide with DMSO only or 0% inhibition
An 11-point dose response curve was generated to determine IC50 values (using GenData) based on the following equation:
Y=Bottom+(Top-Bottom)/(1+10^((log IC50−X)*HillSlope))
where Y=% inhibition in the presence of X inhibitor concentration; Top=100% inhibition derived from the IC (mean signal of Mcl-1+inhibitor control); Bottom=0% inhibition derived from the NC (mean signal of Mcl-1+DMSO); Hillslope=Hill coefficient; and IC50=concentration of compound with 50% inhibition in relation to top/neutral control (NC).
In this assay [L]=8 nM and Kd=10 nM
Representative compounds of the present invention were tested according to the procedure as described above, with results as listed in the Table below (n.d. means not determined).

CO[C@H]1COC(C)(C)OC[C@@]12/C(F)=C/C[C@H](C)[C@@H](C)S(=O)(=O)NC(=O)c1ccc3c(c1)N(C[C@@H]1CCCN12)C[C@@]1(CCCc2cc(Cl)ccc21)CO3 [Compound 12]
AC50 ([1]; Homo sapiens, MOLP-8): 885 nM | Ki (Mcl-1): 0.359 nM

C[C@@H]1[C@@H](C)C/C=C(\F)C2(COC(C)(C)OC2)N2CC[C@H]2CN2C[C@@]3(CCCc4cc(Cl)ccc43)COc3ccc(cc32)C(=O)NS1(=O)=O [Compound 13]
AC50 ([1]; Homo sapiens, MOLP-8): 1110 nM | Ki (Mcl-1): 1.77 nM

C[C@@H]1[C@@H](C)C/C=C(\F)C2(COC(C)(C)OC2)N2CCC[C@H]2CN2C[C@@]3(CCCc4cc(Cl)ccc43)COc3ccc(cc32)C(=O)NS1(=O)=O [Compound 14]
AC50 ([1]; Homo sapiens, MOLP-8): 759 nM | Ki (Mcl-1): 0.241 nM

COC[C@H](OC)[C@@]1(COC)/C(F)=C/C[C@H](C)[C@@H](C)S(=O)(=O)NC(=O)c2ccc3c(c2)N(C[C@@H]2CCN21)C[C@@]1(CCCc2cc(Cl)ccc21)CO3 [Compound 15]
AC50 ([1]; Homo sapiens, MOLP-8): 503 nM

COC[C@H](O)[C@@]1(COC)/C(F)=C/C[C@H](C)[C@@H](C)S(=O)(=O)NC(=O)c2ccc3c(c2)N(C[C@@H]2CCN21)C[C@@]1(CCCc2cc(Cl)ccc21)CO3 [Compound 16]
AC50 ([1]; Homo sapiens, MOLP-8): 222 nM | Ki (Mcl-1): 0.072 nM

C[C@@H]1[C@@H](C)C/C=C(\F)[C@H]([C@@H](C)O)N2CCC[C@H]2CN2C[C@@]3(CCOc4cc(Cl)ccc43)COc3ccc(cc32)C(=O)NS1(=O)=O [Compound 17]
AC50 ([1]; Homo sapiens, MOLP-8): 3350 nM | Ki (Mcl-1): 2.41 nM

C[C@H](O)[C@@H]1/C(F)=C/C[C@H](C)[C@@H](C)S(=O)(=O)NC(=O)c2ccc3c(c2)N(C[C@@H]2CCCN21)C[C@@]1(CCOc2cc(Cl)ccc21)CO3 [Compound 18]
AC50 [1]: 3420 nM | Ki (Mcl-1): 0.606 nM

C[C@@H]1[C@@H](C)C/C=C(\F)[C@H]([C@@H](O)Cn2cccn2)N2CC[C@H]2CN2C[C@@]3(CCCc4cc(Cl)ccc43)COc3ccc(cc32)C(=O)NS1(=O)=O [Compound 19]
AC50 ([1]; Homo sapiens, MOLP-8): 126 nM | Ki (Mcl-1): 0.049 nM

C[C@@H]1[C@@H](C)C/C=C(\F)[C@H]([C@@H](O)COC2CCOCC2)N2CCC[C@H]2CN2C[C@@]3(CCCc4cc(Cl)ccc43)COc3ccc(cc32)C(=O)NS1(=O)=O [Compound 20]
AC50 ([1]; Homo sapiens, MOLP-8): 272 nM | Ki (Mcl-1): 0.052 nM

C[C@@H]1[C@@H](C)C/C=C(\F)[C@H]([C@@H](O)CN2CCOCC2)N2CC[C@H]2CN2C[C@@]3(CCCc4cc(Cl)ccc43)COc3ccc(cc32)C(=O)NS1(=O)=O [Compound 21]
AC50 ([1]; Homo sapiens, MOLP-8): 87.9 nM | Ki (Mcl-1): 0.051 nM

C[C@@H]1[C@@H](C)C/C=C(\F)[C@H]([C@@H](O)CN2CCOCC2)N2CCC[C@H]2CN2C[C@@]3(CCCc4cc(Cl)ccc43)COc3ccc(cc32)C(=O)NS1(=O)=O [Compound 22]
AC50 ([1]; Homo sapiens, MOLP-8): 239 nM | Ki (Mcl-1): 0.08 nM

COCCN(CCOC)C[C@H](O)[C@H]1/C(F)=C/C[C@H](C)[C@@H](C)S(=O)(=O)NC(=O)c2ccc3c(c2)N(C[C@@H]2CCN21)C[C@@]1(CCCc2cc(Cl)ccc21)CO3 [Compound 23]
AC50 ([1]; Homo sapiens, MOLP-8): 69.6 nM | Ki (Mcl-1): 0.023 nM
